Experimental findings from patent US20260034125A1, “N-PHENYL-1-(PHENYLSULFONYL)PIPERIDIN-4-AMINE DERIVATIVES AS CCR6 INHIBITORS” (priority 2023, published 2026) are described below.

For the test, the target named is T1, human CCR6 (Homo sapiens, UniProt P51684).
T1 sequence (P51684 1-374): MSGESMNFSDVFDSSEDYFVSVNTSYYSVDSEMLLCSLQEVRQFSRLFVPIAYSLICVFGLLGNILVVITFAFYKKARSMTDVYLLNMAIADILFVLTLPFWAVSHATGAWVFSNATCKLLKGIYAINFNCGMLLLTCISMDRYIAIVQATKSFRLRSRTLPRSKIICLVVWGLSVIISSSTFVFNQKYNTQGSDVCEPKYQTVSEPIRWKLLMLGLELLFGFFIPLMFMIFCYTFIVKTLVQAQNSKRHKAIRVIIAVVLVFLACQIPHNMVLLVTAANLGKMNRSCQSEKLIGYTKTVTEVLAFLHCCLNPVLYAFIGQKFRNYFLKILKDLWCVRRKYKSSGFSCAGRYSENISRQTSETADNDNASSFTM
Briefly: Human CCR6-Cre reporter assay. It is filed as cell-based. The arrangement: The second construct contained the open reading frame of human CCR6 in the pUNO1 backbone; host or cells: 293 FT cells. The note with it: relative -LogIC50; transfected 293 FT cells, 6 μM Forskolin, 6 nM CCL20, luciferase readout, 5h. As to the method:
293 FT cells were transfected with 2 constructs using TransIT-293 (Mirus). The first construct (pGL4.29, Promega) expressed the luciferase reporter gene luc2P in response to the binding of cAMP-induced CREB to the CRE element in its promoter. The second construct contained the open reading frame of human CCR6 in the pUNO1 backbone under the control of an enhanced CMV promoter (In VivoGen). 48h after transfection, cells were harvested and diluted to 750,000 cells/ml in culture medium (DMEM, 10% FBS, 1× pen/strep (Gibco 15140)). Compounds were 2.5-fold serially diluted in DMSO. Further dilutions were made in assay medium (DMEM, 10% FBS, 1× pen/strep, 6 μM Forskolin, 6 nM CCL20). 4 μl of the compound solution was added to a white MW384 plate, followed by 20 μl of the cell suspension. Final DMSO concentration in the assay was 0.1%. The MW384 plate was placed in an incubator at 37° C., 5% CO2 for 5h. Luciferase activity was determined by addition of 24 μl of a 2.5× diluted BriteLite luciferase solution (Perkin Elmer), followed by luminescence measurement using a VICTOR Plate reader (Perkin Elmer). […] The relative-LogIC50 was determined with GraphPad Prism 9 using a four-parameter dose-response model.
For orientation: A reporter such as luciferase makes a cellular process visible.

The term IC50 denotes the concentration at which inhibition is half-maximal. A lower IC50 goes with greater potency. The molecule `CC(C)c1cnc2ccc(-c3ccc(S(=O)(=O)N4CCC(Nc5ccc(C6(C(F)(F)F)CC6)cc5)CC4)cc3)cn12` [Example 10, 1-{4-[3-(propan-2-yl)imidazo[1,2-a]pyridin-6-yl]benzenesulfonyl}-N-{4-[1-(trifluoromethyl)cyclopropyl]phenyl}piperidin-4-amine] gave an IC50 of 100 nM.

The molecule `CC(C)c1cnc2ccc(-c3ccc(S(=O)(=O)N4CCC(Nc5ccc(C6(C(F)(F)F)CC6)cn5)CC4)cc3)cn12` [Example 38, N-(1-{4-[3-(propan-2-yl)imidazo[1,2-a]pyridin-6-yl]benzenesulfonyl}piperidin-4-yl)-5-[1-(trifluoromethyl)cyclopropyl]pyridin-2-amine] gave an IC50 of 63.1 nM.

`Cc1n[nH]c2ccc(-c3ccc(S(=O)(=O)N4CCC(Nc5ccc(C6CC6)cc5)CC4)cc3)cc12` [Example 11, N-(4-cyclopropylphenyl)-1-[4-(3-methyl-1H-indazol-5-yl)benzenesulfonyl]piperidin-4-amine] showed a half-inhibitory concentration (IC50) of 501 nM.

`Cc1n[nH]c2ccc(-c3ccc(S(=O)(=O)N4CCC(Nc5ccc(C6(C(F)(F)F)CC6)cc5)CC4)cc3)cc12` [Example 2, 1-[4-(3-methyl-1H-indazol-5-yl)benzenesulfonyl]-N-{4-[1-(trifluoromethyl)cyclopropyl]phenyl}piperidin-4-amine]: the IC50 is 79.4 nM.

Molecule `N#CC1(c2ccc(NC3CCN(S(=O)(=O)c4ccc(-c5ccc6nccn6c5)cc4)CC3)nc2)CC1` [Example 33, 1-(6-{[1-(4-{imidazo[1,2-a]pyridin-6-yl}benzenesulfonyl)piperidin-4-yl]amino}pyridin-3-yl)cyclopropane-1-carbonitrile] gave an IC50 of 794 nM.

On to `N#CC1(c2ccc(NC3CCN(S(=O)(=O)c4ccc(N5CCC6(CCNC6=O)CC5)cc4)CC3)nc2)CC1` [Example 28, 1-(6-{[1-(4-{1-oxo-2,8-diazaspiro[4.5]decan-8-yl}benzenesulfonyl)piperidin-4-yl]amino}pyridin-3-yl)cyclopropane-1-carbonitrile], for which the IC50 is 39800 nM.

In turn, `O=S(=O)(c1ccc(-c2ccc3nccn3c2)cc1)[C@H]1CC[C@H](Nc2ccc(C3COC3)cc2)CC1` [Example 18, 4-(oxetan-3-yl)-N-[trans-4-(4-{imidazo[1,2-a]pyridin-6-yl}benzenesulfonyl)cyclohexyl]aniline] showed an IC50 of 398 nM.

`N#CC1(c2ccc(NC3CCN(S(=O)(=O)c4ccc(N5CCC(CC(N)=O)CC5)cc4)CC3)nc2)CC1` [Example 24, 2-(1-{4-[(4-{[5-(1-cyanocyclopropyl)pyridin-2-yl]amino}piperidin-1-yl)sulfonyl]phenyl}piperidin-4-yl) acetamide] had an IC50 of 5010 nM.

`N#CC1(c2ccc(N[C@H]3CC[C@H](S(=O)(=O)c4ccc(-c5ccc6nccn6c5)cc4)CC3)cc2)CC1` [Example 15, 1-(4-{[trans-4-(4-{imidazo[1,2-a]pyridin-6-yl}benzenesulfonyl)cyclohexyl]Amino}phenyl)cyclopropane-1-carbonitrile] had an IC50 of 158 nM.

Regarding `CC(C)c1nnc2cnc(-c3ccc(S(=O)(=O)N4CCC(Nc5ccc(C6(C(F)(F)F)CC6)cn5)CC4)cc3)cn12` [Example 39, N-(1-{4-[3-(propan-2-yl)-[1,2,4]triazolo[4,3-a]pyrazin-6-yl]benzenesulfonyl}piperidin-4-yl)-5-[1-(trifluoromethyl)cyclopropyl]pyridin-2-amine], the IC50 was 63.1 nM.

`N#Cc1ccc(-c2ccc(S(=O)(=O)N3CCC(Nc4ccc(C5(C#N)CC5)cc4)CC3)cc2)cc1` [Example 1, 4′-[(4-{[4-(1-cyanocyclopropyl)phenyl]Amino}piperidin-1-yl)sulfonyl]-[1,1′-biphenyl]-4-carbonitrile] showed an IC50 of 501 nM.

`COC1CC2(CCN(c3ccc(S(=O)(=O)N4CCC(Nc5ccc(C6(C#N)CC6)cn5)CC4)cc3)CC2)C1` [Example 23, 1-(6-{[1-(4-{2-methoxy-7-azaspiro[3.5]nonan-7-yl}benzenesulfonyl)piperidin-4-yl]amino}pyridin-3-yl)cyclopropane-1-carbonitrile] had an IC50 of 1260 nM.

For `N#CC1(c2ccc(NC3CCN(S(=O)(=O)c4ccc(N5CCC6(CC5)COC(=O)N6)cc4)CC3)nc2)CC1` [Example 27, 1-(6-{[1-(4-{2-oxo-3-oxa-1,8-diazaspiro[4.5]decan-8-yl}benzenesulfonyl)piperidin-4-yl]amino}pyridin-3-yl)cyclopropane-1-carbonitrile], half-maximal inhibition (IC50) required 7940 nM.

`N#CC1(c2ccc(NC3CCN(S(=O)(=O)c4ccc(N5CCC(CNC(N)=O)CC5)cc4)CC3)nc2)CC1` [Example 25, [(1-{4-[(4-{[5-(1-cyanocyclopropyl)pyridin-2-yl]amino}piperidin-1-yl)sulfonyl]phenyl}piperidin-4-yl)methyl]urea] showed an IC50 of 12600 nM.

In turn, `N#Cc1c[nH]c2ccc(-c3ccc(S(=O)(=O)N4CCC(Nc5ccc(C6(C(F)(F)F)CC6)cc5)CC4)cc3)cc12` [Example 8, 5-(4-{[4-({4-[1-(trifluoromethyl)cyclopropyl]phenyl}Amino)piperidin-1-yl]sulfonyl}phenyl)-1H-indole-3-carbonitrile] showed an IC50 of 39.8 nM.

`O=S(=O)(c1ccc(-c2ccc3nccn3c2)cc1)[C@H]1CC[C@H](Nc2ccc(C3CC3(F)F)cc2)CC1` (stereo partly drawn) [Example 14, 4-(2,2-difluorocyclopropyl)-N-[trans-4-(4-{imidazo[1,2-a]pyridin-6-yl}benzenesulfonyl)cyclohexyl]aniline] showed an IC50 of 251 nM.

Turning to `N#CC1(c2ccc(NC3CCN(S(=O)(=O)c4ccc(N5CCC6(CC5)COC6)cc4)CC3)nc2)CC1` [Example 29, 1-(6-{[1-(4-{2-oxa-7-azaspiro[3.5]nonan-7-yl}benzenesulfonyl)piperidin-4-yl]amino}pyridin-3-yl)cyclopropane-1-carbonitrile], the IC50 is 10000 nM.

As to `N=S(=O)(c1ccc(-c2ccc3nccn3c2)cc1)[C@H]1CC[C@H](Nc2ccc(C3(C(F)(F)F)CC3)cc2)CC1` (stereo partly drawn) [Example 13, (4-{imidazo[1,2-a]pyridin-6-yl}phenyl) [trans-4-({4-[1-(trifluoromethyl)cyclopropyl]phenyl}Amino)cyclohexyl](imino)-26-sulfanone], half-maximal inhibition (IC50) required 251 nM.

In the case of `N#CC1(c2ccc(NC3CCN(S(=O)(=O)c4ccc(N5CCC6(CC5)CC(=O)NC(=O)C6)cc4)CC3)nc2)CC1` [Example 26, 1-(6-{[1-(4-{8,10-dioxo-3,9-diazaspiro[5.5]undecan-3-yl}benzenesulfonyl)piperidin-4-yl]amino}pyridin-3-yl)cyclopropane-1-carbonitrile], the IC50 is 2510 nM.

`O=S(=O)(c1ccc(-c2ccc3nccn3c2)cc1)N1CCC(Nc2ccc(C3(C(F)(F)F)CC3)cc2)CC1` [Example 9, 1-(4-{imidazo[1,2-a]pyridin-6-yl}benzenesulfonyl)-N-{4-[1-(trifluoromethyl)cyclopropyl]phenyl}piperidin-4-amine] showed an IC50 of 100 nM.

As for `CC(C)c1cnc2ccc(-c3ccc(S(=O)(=O)N4CCC(Nc5ccc(C6(C#N)CC6)cn5)CC4)cc3)cn12` [Example 34, 1-{6-[(1-{4-[3-(propan-2-yl)imidazo[1,2-a]pyridin-6-yl]benzenesulfonyl}piperidin-4-yl)amino]pyridin-3-yl}cyclopropane-1-carbonitrile], the IC50 is 200 nM.
